Data: ChEMBL document CHEMBL4145553, “Design, synthesis, and biological evaluation of novel amide and hydrazide based thioether analogs targeting Histone deacteylase (HDAC) enzymes” (Eur J Med Chem, 2018)

What was measured:
Format in all cases: functional
[1] = system: UO-31; experiment: Growth inhibition of human UO31 cells assessed as cell growth at 10^-7 M incubated for 48 hrs by sulforhodamine B assay relative to control; conditions: UO-31, 48 h, read-out: Activity
[2] = system: NCI-H23; experiment: Growth inhibition of human NCI-H23 cells assessed as cell growth at 10^-8 M incubated for 48 hrs by sulforhodamine B assay relative to control; conditions: NCI-H23, 48 h, read-out: Activity
[3] = system: EKVX; experiment: Growth inhibition of human EKVX cells incubated for 48 hrs by sulforhodamine B assay
[4] = system: ACHN; experiment: Growth inhibition of human ACHN cells assessed as cell growth at 10^-8 M incubated for 48 hrs by sulforhodamine B assay relative to control; conditions: read-out: Activity
[5] = system: NCI-H226; experiment: Growth inhibition of human NCI-H226 cells assessed as cell growth at 10^-7 M incubated for 48 hrs by sulforhodamine B assay relative to control; conditions: NCI-H226, 48 h, read-out: Activity
[6] = system: HT-29; experiment: Growth inhibition of human HT-29 cells assessed as cell growth at 10^-6 M incubated for 48 hrs by sulforhodamine B assay relative to control; conditions: HT-29, 48 h, read-out: Activity
[7] = system: NCI-H460; experiment: Growth inhibition of human NCI-H460 cells incubated for 48 hrs by sulforhodamine B assay; conditions: NCI-H460, 48 h
[8] = system: CAKI-1; experiment: Growth inhibition of human Caki1 cells assessed as cell growth at 10^-6 M incubated for 48 hrs by sulforhodamine B assay relative to control; conditions: CAKI-1, 48 h, read-out: Activity
[9] = system: OVCAR-8; experiment: Growth inhibition of human OVCAR8 cells incubated for 48 hrs by sulforhodamine B assay; conditions: OVCAR-8, 48 h
[10] = system: HOP-62; experiment: Growth inhibition of human HOP62 cells incubated for 48 hrs by sulforhodamine B assay; conditions: HOP-62, 48 h
[11] = system: 786-0; experiment: Growth inhibition of human 786-0 cells incubated for 48 hrs by sulforhodamine B assay; conditions: 786-0, 48 h
[12] = system: SW-620; experiment: Growth inhibition of human SW620 cells assessed as cell growth at 10^-6 M incubated for 48 hrs by sulforhodamine B assay relative to control; conditions: SW-620, 48 h, read-out: Activity
[13] = system: SN12C; experiment: Growth inhibition of human SN12C cells assessed as cell growth at 10^-8 M incubated for 48 hrs by sulforhodamine B assay relative to control; conditions: read-out: Activity
[14] = system: MDA-MB-435; experiment: Growth inhibition of human MDA-MB-435 cells assessed as cell growth at 10^-5 M incubated for 48 hrs by sulforhodamine B assay relative to control; conditions: MDA-MB-435, 48 h, read-out: Activity
[15] = system: UACC-62; experiment: Growth inhibition of human UACC62 cells assessed as cell growth at 10^-7 M incubated for 48 hrs by sulforhodamine B assay relative to control; conditions: UACC-62, 48 h, read-out: Activity
[16] = system: DU-145; experiment: Growth inhibition of human DU145 cells incubated for 48 hrs by sulforhodamine B assay; conditions: DU-145, 48 h
[17] = system: NCI/ADR-RES; experiment: Growth inhibition of human NCI/ADR-RES cells assessed as cell growth at 10^-6 M incubated for 48 hrs by sulforhodamine B assay relative to control; conditions: read-out: Activity
[18] = system: SK-MEL-28; experiment: Growth inhibition of human SK-MEL-28 cells assessed as cell growth at 10^-7 M incubated for 48 hrs by sulforhodamine B assay relative to control; conditions: SK-MEL-28, 48 h, read-out: Activity
[19] = system: KM12; experiment: Growth inhibition of human KM12 cells assessed as cell growth at 10^-5 M incubated for 48 hrs by sulforhodamine B assay relative to control; conditions: KM12, 48 h, read-out: Activity
[20] = system: 786-0; experiment: Growth inhibition of human 786-0 cells assessed as cell growth at 10^-8 M incubated for 48 hrs by sulforhodamine B assay relative to control; conditions: 786-0, 48 h, read-out: Activity
[21] = system: SK-MEL-2; experiment: Growth inhibition of human SK-MEL-2 cells assessed as cell growth at 10^-4 M incubated for 48 hrs by sulforhodamine B assay relative to control; conditions: SK-MEL-2, 48 h, read-out: Activity
[22] = system: RPMI-8226; experiment: Growth inhibition of human RPMI8226 cells assessed as cell growth at 10^-5 M incubated for 48 hrs by sulforhodamine B assay relative to control; conditions: RPMI-8226, 48 h, read-out: Activity
[23] = system: MCF7; experiment: Growth inhibition of human MCF7 cells assessed as cell growth at 10^-7 M incubated for 48 hrs by sulforhodamine B assay relative to control; conditions: MCF7, 48 h, read-out: Activity
[24] = system: Malme-3M; experiment: Growth inhibition of human MALME-3M cells assessed as cell growth at 10^-4 M incubated for 48 hrs by sulforhodamine B assay relative to control; conditions: read-out: Activity
[25] = system: OVCAR-3; experiment: Growth inhibition of human OVCAR3 cells assessed as cell growth at 10^-5 M incubated for 48 hrs by sulforhodamine B assay relative to control; conditions: OVCAR-3, 48 h, read-out: Activity
[26] = system: M14; experiment: Growth inhibition of human M14 cells assessed as cell growth at 10^-8 M incubated for 48 hrs by sulforhodamine B assay relative to control; conditions: M14, 48 h, read-out: Activity
[27] = system: SN12C; experiment: Growth inhibition of human SN12C cells assessed as cell growth at 10^-7 M incubated for 48 hrs by sulforhodamine B assay relative to control; conditions: read-out: Activity
[28] = system: Hs-578T; experiment: Growth inhibition of human Hs 578T cells incubated for 48 hrs by sulforhodamine B assay
[29] = read-out: LC50 (the source's name)
[30] = read-out: pLC50 (the source's name) (converted)

CCS/C(Nc1ccccc1)=C(\C#N)C(=O)Nc1ccc(OC)cc1
growth at 0.1 µM [1]: 91% | growth at 0.01 µM [2]: 97% | GI50 ([3]; read-out: GI50): 4.42 µM | CC50 [3, 29]: > 100 µM | TGI ([3]; read-out: TGI): > 100 µM | GI50 ([3]; read-out: pGI50 (converted)): 4.47 µM | CC50 [3, 30]: > 100 µM | TGI ([3]; read-out: pTGI): > 100 µM | growth at 0.01 µM [4]: 101% | growth at 0.1 µM [5]: 86% | growth at 1 µM [6]: 99% | GI50 ([7]; read-out: GI50): 3.14 µM | LC50 ([7]; read-out: LC50): > 100 µM | TGI ([7]; read-out: TGI): 34.2 µM | GI50 ([7]; read-out: pGI50 (converted)): 3.16 µM | LC50 ([7]; read-out: pLC50 (converted)): > 100 µM | TGI ([7]; read-out: pTGI (converted)): 33.9 µM | growth at 1 µM [8]: 73% | GI50 ([9]; read-out: GI50): 4.37 µM | CC50 [9, 29]: > 100 µM | TGI ([9]; read-out: TGI): > 100 µM | GI50 ([9]; read-out: pGI50 (converted)): 4.37 µM | CC50 [9, 30]: > 100 µM | TGI ([9]; read-out: pTGI): > 100 µM | GI50 ([10]; read-out: GI50): 5.62 µM | CC50 [10, 29]: > 100 µM | TGI ([10]; read-out: TGI): > 100 µM | GI50 ([10]; read-out: pGI50 (converted)): 5.62 µM | CC50 [10, 30]: > 100 µM | TGI ([10]; read-out: pTGI): > 100 µM | GI50 ([11]; read-out: GI50): 4.14 µM | CC50 [11, 29]: > 100 µM | TGI ([11]; read-out: TGI): > 100 µM | GI50 ([11]; read-out: pGI50 (converted)): 4.17 µM | CC50 [11, 30]: > 100 µM | TGI ([11]; read-out: pTGI): > 100 µM | growth at 1 µM [12]: 70% | growth at 0.01 µM [13]: 97% | growth at 10 µM [14]: -49% | growth at 0.1 µM [15]: 93% | GI50 ([16]; read-out: GI50): 3.48 µM | CC50 [16, 29]: > 100 µM | TGI ([16]; read-out: TGI): 49.8 µM | GI50 ([16]; read-out: pGI50 (converted)): 3.47 µM | CC50 [16, 30]: > 100 µM | TGI ([16]; read-out: pTGI (converted)): 50.1 µM | growth at 1 µM [17]: 73% | growth at 0.1 µM [18]: 91% | growth at 10 µM [19]: 28% | growth at 0.01 µM [20]: 97% | growth at 100 µM [21]: 14% | growth at 10 µM [22]: 6% | growth at 0.1 µM [23]: 93% | growth at 100 µM [24]: 45% | growth at 10 µM [25]: -6% | growth at 0.01 µM [26]: 102% | growth at 0.1 µM [27]: 97% | GI50 ([28]; read-out: GI50): 4.07 µM | CC50 [28, 29]: > 100 µM | TGI ([28]; read-out: TGI): > 100 µM | GI50 ([28]; read-out: pGI50 (converted)): 4.07 µM | CC50 [28, 30]: > 100 µM | TGI ([28]; read-out: pTGI (converted)): > 100 µM

CCS/C(Nc1ccccc1)=C(\C#N)C(=O)N/N=C\c1ccc(Cl)cc1Cl
growth at 0.1 µM [1]: 90% | growth at 0.01 µM [2]: 105% | GI50 ([3]; read-out: GI50): 5.09 µM | CC50 [3, 29]: > 100 µM | TGI ([3]; read-out: TGI): > 100 µM | GI50 ([3]; read-out: pGI50 (converted)): 5.13 µM | CC50 [3, 30]: > 100 µM | TGI ([3]; read-out: pTGI): > 100 µM | growth at 0.01 µM [4]: 102% | growth at 0.1 µM [5]: 82% | growth at 1 µM [6]: 101% | GI50 ([7]; read-out: GI50): 3.16 µM | LC50 ([7]; read-out: LC50): > 100 µM | TGI ([7]; read-out: TGI): > 100 µM | GI50 ([7]; read-out: pGI50 (converted)): 3.16 µM | LC50 ([7]; read-out: pLC50 (converted)): > 100 µM | TGI ([7]; read-out: pTGI (converted)): > 100 µM | growth at 1 µM [8]: 67% | GI50 ([9]; read-out: GI50): 4.81 µM | CC50 [9, 29]: > 100 µM | TGI ([9]; read-out: TGI): > 100 µM | GI50 ([9]; read-out: pGI50 (converted)): 4.79 µM | CC50 [9, 30]: > 100 µM | TGI ([9]; read-out: pTGI): > 100 µM | GI50 ([10]; read-out: GI50): 3.66 µM | CC50 [10, 29]: > 100 µM | TGI ([10]; read-out: TGI): > 100 µM | GI50 ([10]; read-out: pGI50 (converted)): 3.63 µM | CC50 [10, 30]: > 100 µM | TGI ([10]; read-out: pTGI): > 100 µM | GI50 ([11]; read-out: GI50): 3.5 µM | CC50 [11, 29]: > 100 µM | TGI ([11]; read-out: TGI): > 100 µM | GI50 ([11]; read-out: pGI50 (converted)): 3.47 µM | CC50 [11, 30]: > 100 µM | TGI ([11]; read-out: pTGI): > 100 µM | growth at 1 µM [12]: 88% | growth at 0.01 µM [13]: 97% | growth at 10 µM [14]: -53% | growth at 0.1 µM [15]: 91% | GI50 ([16]; read-out: GI50): 3.57 µM | CC50 [16, 29]: > 100 µM | TGI ([16]; read-out: TGI): > 100 µM | GI50 ([16]; read-out: pGI50 (converted)): 3.55 µM | CC50 [16, 30]: > 100 µM | TGI ([16]; read-out: pTGI (converted)): > 100 µM | growth at 1 µM [17]: 87% | growth at 0.1 µM [18]: 95% | growth at 10 µM [19]: 24% | growth at 0.01 µM [20]: 95% | growth at 100 µM [21]: -9% | growth at 10 µM [22]: 18% | growth at 0.1 µM [23]: 89% | growth at 100 µM [24]: 26% | growth at 10 µM [25]: 1% | growth at 0.01 µM [26]: 101% | growth at 0.1 µM [27]: 92% | GI50 ([28]; read-out: GI50): 2.74 µM | CC50 [28, 29]: > 100 µM | TGI ([28]; read-out: TGI): 98.7 µM | GI50 ([28]; read-out: pGI50 (converted)): 2.75 µM | CC50 [28, 30]: > 100 µM | TGI ([28]; read-out: pTGI (converted)): 97.7 µM
